Broadly, the IC50 is the midpoint of a concentration-inhibition curve. As usually defined, the Kd is the concentration at which binding is half-saturated. Read a high Kd as weaker binding.

Data on two compounds can be found in doi:10.1101/2023.03.27.534333v1 (biorxiv, 2023).

Experiment [1] has as its target T1, full-length METTL16 (Homo sapiens, UniProt Q86W50).
T1 sequence (Q86W50 1-562): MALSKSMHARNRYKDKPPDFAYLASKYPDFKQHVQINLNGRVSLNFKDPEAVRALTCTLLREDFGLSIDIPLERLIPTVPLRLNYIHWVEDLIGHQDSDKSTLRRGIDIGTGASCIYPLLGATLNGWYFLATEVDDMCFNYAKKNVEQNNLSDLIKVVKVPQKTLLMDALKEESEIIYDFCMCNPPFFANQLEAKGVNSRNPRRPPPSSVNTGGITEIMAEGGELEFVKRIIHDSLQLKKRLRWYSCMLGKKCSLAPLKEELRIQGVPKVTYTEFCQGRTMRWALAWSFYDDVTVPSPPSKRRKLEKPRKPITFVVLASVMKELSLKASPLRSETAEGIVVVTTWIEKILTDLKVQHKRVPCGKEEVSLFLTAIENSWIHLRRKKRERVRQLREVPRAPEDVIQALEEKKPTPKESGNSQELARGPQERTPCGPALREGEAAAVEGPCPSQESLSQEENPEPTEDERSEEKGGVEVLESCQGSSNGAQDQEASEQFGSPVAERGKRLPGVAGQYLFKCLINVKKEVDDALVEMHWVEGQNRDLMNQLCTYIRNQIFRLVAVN
Nature of the experiment: m6A antibody-based ELISA. Type of experiment: biochemical. Background: ELISA stands for enzyme-linked immunosorbent assay.

The target in experiment [2] is T2, METTL16 MTD (residues 1-291) (Homo sapiens, UniProt Q86W50).
T2 sequence (Q86W50 1-291): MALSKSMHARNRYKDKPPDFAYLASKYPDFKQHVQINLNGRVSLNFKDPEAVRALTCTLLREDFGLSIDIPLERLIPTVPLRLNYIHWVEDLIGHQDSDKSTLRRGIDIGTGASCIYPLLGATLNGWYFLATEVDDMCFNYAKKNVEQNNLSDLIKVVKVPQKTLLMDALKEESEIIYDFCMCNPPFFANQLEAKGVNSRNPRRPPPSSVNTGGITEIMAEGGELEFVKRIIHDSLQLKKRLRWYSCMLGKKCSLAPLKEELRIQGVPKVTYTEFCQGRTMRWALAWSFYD
Kind of experiment: microscale thermophoresis, His-tag RED-tris-NTA labelled protein. Type of experiment: binding.

Structures are written as SMILES.

In experiment [1], `C/C(=N\N=C(/N)S)c1ccccc1` [compound 1, [(E)-(1-phenylethylidene)amino]thiourea] showed an IC50 of 25.8 ± 17.2 nM. This compound showed a Kd in experiment [2] of 3310 ± 610 nM.
In the case of `C/C(=N\NC(N)=S)c1ccc(F)cc1` [compound 2, [(E)-[1-(4-fluorophenyl)ethylidene]amino]thiourea], half-maximal inhibition in experiment [1] (IC50) required 60.9 ± 2.75 nM. Besides, the Kd in experiment [2] is 2840 ± 940 nM.
